The record followed here is PMC10046037, “GABRG2 Variants Associated with Febrile Seizures” (Biomolecules, 2023).

In the test the target is T1, α1β3γ2 GABAA receptor, γ2W162X variant (Homo sapiens, UniProt P14867+P28472).
T1 construct: expressed in transfected cells; host or cells: HEK293T
T1 sequence (P14867 28-456): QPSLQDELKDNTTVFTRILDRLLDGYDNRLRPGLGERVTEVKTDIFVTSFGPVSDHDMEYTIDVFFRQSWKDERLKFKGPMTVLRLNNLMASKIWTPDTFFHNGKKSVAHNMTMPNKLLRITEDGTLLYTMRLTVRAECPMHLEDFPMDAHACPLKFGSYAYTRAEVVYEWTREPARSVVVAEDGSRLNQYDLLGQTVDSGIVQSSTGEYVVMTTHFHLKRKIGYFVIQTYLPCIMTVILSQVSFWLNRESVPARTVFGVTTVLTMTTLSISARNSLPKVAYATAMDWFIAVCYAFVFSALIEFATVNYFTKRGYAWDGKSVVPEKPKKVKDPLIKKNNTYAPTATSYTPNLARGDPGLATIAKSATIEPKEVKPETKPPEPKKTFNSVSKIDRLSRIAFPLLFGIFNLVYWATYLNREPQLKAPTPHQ
T1 sequence (P28472 1-473 isoform P28472-2): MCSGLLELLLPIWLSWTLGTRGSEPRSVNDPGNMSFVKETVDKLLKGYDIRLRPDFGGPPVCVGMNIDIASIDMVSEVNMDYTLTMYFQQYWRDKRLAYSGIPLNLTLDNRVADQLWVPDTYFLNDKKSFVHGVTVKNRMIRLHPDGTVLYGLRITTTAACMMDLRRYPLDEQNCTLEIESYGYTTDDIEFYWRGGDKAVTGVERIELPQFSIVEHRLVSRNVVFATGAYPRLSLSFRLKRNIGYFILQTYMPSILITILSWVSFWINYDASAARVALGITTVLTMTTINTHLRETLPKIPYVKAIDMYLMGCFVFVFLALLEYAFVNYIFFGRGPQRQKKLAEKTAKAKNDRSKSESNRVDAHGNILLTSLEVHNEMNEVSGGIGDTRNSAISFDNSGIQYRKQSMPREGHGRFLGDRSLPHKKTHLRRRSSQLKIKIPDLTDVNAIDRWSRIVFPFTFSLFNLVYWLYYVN
Briefly: Automated patch clamp of GABA-elicited currents (SyncroPatch 384PE), γ2W162X. Particulars: mean. In kind it is cell-based. The method, then: The coding sequences of human α1 (GABRA1, NM_000806), β3 (GABRB3, NM_021912), and γ2 (GABRG2, NM_198904.2) GABAAR subunits were subcloned into the pcDNA3.1 expression vectors (Invitrogen, Waltham, MA, USA).
HEK293T cells (ATCC, CRL-11268) were cultured at 37 °C in a humidified 5% CO2 incubator and maintained in Dulbecco’s modified Eagle’s medium (Invitrogen) supplemented with 10% fetal bovine serum (Life Technologies, Carlsbad, CA, USA), and 100 IU/mL of penicillin/streptomycin (Life Technologies). For the expression experiments, 4 × 10^5 cells were transfected using polyethylenimine (PEI) reagent (40 kD, Polysciences, Warrington, PA, USA) at a DNA: to transfection reagent ratio of 1:2.5 and harvested 36 h after transfection. To express WT and variant α1β3γ2 receptors, a total of 3 µg of α1, β3, and γ2 (WT or mutant) subunit cDNAs were transfected at a ratio of 1:1:1 into 60 mm culture dishes. For the mock-transfected condition, an empty pcDNA3.1 vector was added for a final cDNA transfection amount of 3 μg. For the electrophysiology experiments, 2.5 × 10^5 cells were plated in 100 mm culture dishes and transfected after 24 h with 3 μg of cDNA of each α1, β3, γ2 (wild-type or mutant) subunit, using X-tremeGENE HP DNA transfection Reagent (Roche Diagnostics, Basel, Switzerland), following the manufacturer’s protocol. Recordings were obtained forty-eight hours after transfection.
Whole-cell patch clamp recordings were conducted according to the manufacturer’s standard procedure for the SyncroPatch 384 [31]. Whole-cell voltage-clamp recordings were performed at room temperature on HEK293T cells 48 h after transfection with GABAAR subunits, using the SyncroPatch 384PE (Nanion Technologies, Munich, Germany). Cells, at a concentration of 400,000 cells/mL, were harvested in suspension in external solution containing 140 mM of NaCl, 2 mM of CaCl2, 4 mM of KCl, 1 mM of MgCl2, 5 mM of glucose, and 10 mM of HEPES (pH 7.4 with NaOH, 298 mOsm). The cells were loaded in a multi-hole (4 holes per well) 384-well Nanion patch clamp (NPC) chip with a thick borosilicate glass bottom and an average resistance pore size of […]. Built-in electrophysiological protocols were used, and the data were digitized using PatchControl 384 (Nanion Technologies) application. Using PatchControl 384, electrophysiological parameters, such as seal resistance, capacitance, and series resistance, were determined for each well after the application of a test pulse, and subsequently monitored over time. […] The currents were normalized to the maximal response of each well, and the concentration–response curves were calculated from single-point additions. The EC50 values for each variant or wild-type receptor were calculated across multiple wells for each experimental condition.
(Patch clamp records ionic current or voltage across a cell membrane.)

Consider `NCCCC(=O)O` [GABA, γ-aminobutyric acid], for which, where the note is “1 mM GABA for 5 ms, HEK293T, -80 mV”, the Deactivation is 533.8 ms. Moreover, the “IMAX (maximal GABA-evoked peak current)” value (1 mM GABA for 5 ms, HEK293T) was found to be 0.48 nA. In addition, for the setting “1 mM GABA”, the “IMAX variant/IMAX WT” value amounted to 24.07%. For the setting “10–90% rise time, 1 mM GABA for 5 ms, HEK293T”, the “Rise Time” value worked out at 23.51 ms.
